Each structure is given as a SMILES string.

For the experiment, the target named is Histone deacetylase 1/11/4/6/8. Briefly: HDAC Activity screening. The procedure:
Histone Deacetylase (HDAC) Inhibition Assay using Boc-Lys(Ac)-AMC Substrate: Inhibition of HDAC has been implicated to modulate transcription and to induce apoptosis or differentiation in cancer cells. The fluorometric assay provides a fast and fluorescence based method that eliminates radioactivity, extractions or chromatography, as used in traditional assays. The assay is based on two steps. First, the HDAC fluorometric substrate, which comprises an acetylated lysine side chain, is incubated with a sample containing HDAC activity (Mouse Liver Extract). Deacetylation of the substrate sensitizes the substrate; in the second step, treatment with the Trypsin, stop solution produces a fluorophore that can be easily analyzed using fluorescence plate reader. Assay was done in 96-well black microplate and total volume of the assay was […]. Mouse liver enzyme (10 mg/mL) was diluted 1:6 with HDAC buffer. Enzyme cocktail was made of 10 mL of diluted enzyme and 30 mL of HDAC buffer. Forty m
In turn, `COc1ccc(CNC(=O)c2cn(CCCCC(=O)NO)c3ccc(F)cc3c2=O)cc1` [Quinolone-based HDAC inhibitor 4s] displayed an IC50 of 330 nM. Next, `COc1ccc2c(c1)c(=O)c(C(=O)Nc1nc3ccccc3s1)cn2CCCCC(=O)NO` [Quinolone-based HDAC inhibitor 4p]: 28 nM; `O=C(CCCCn1cc(C(=O)Nc2nc3ccccc3s2)c(=O)c2ccccc21)NO` [Quinolone-based HDAC inhibitor 4j]: 1.5 nM; `O=C(CCCCn1cc(C(=O)NCc2cccs2)c(=O)c2ccccc21)NO` [Quinolone-based HDAC inhibitor 4f]: 390 nM. Next, `O=C(CCCCn1cc(C(=O)Nc2nccs2)c(=O)c2ccccc21)NO` [Quinolone-based HDAC inhibitor 4h]: 42 nM; `O=C(CCCCn1cc(C(=O)Nc2ccc(F)cc2)c(=O)c2cc(F)ccc21)NO` [Quinolone-based HDAC inhibitor 4q]: 40 nM. `COc1ccc(CNC(=O)c2cn(CCCCC(=O)NO)c3ccccc3c2=O)cc1` [Quinolone-based HDAC inhibitor 4e] gave an IC50 of 410 nM. The figure for `O=C(CCCCn1cc(C(=O)Nc2ccccc2)c(=O)c2ccccc21)NO` [Quinolone-based HDAC inhibitor 4a] is 32 nM; for `COc1ccc(NC(=O)c2cn(CCCCC(=O)NO)c3ccc(F)cc3c2=O)cc1OC` [Quinolone-based HDAC inhibitor 4t] it is 230 nM.

Regarding `O=C(CCCCn1cc(C(=O)Nc2ccncc2)c(=O)c2cc(F)ccc21)NO` [Quinolone-based HDAC inhibitor 4u], the IC50 worked out at 85 nM. Compound `O=C(CCCCn1cc(C(=O)Nc2nc3ccccc3s2)c(=O)c2cc(F)ccc21)NO` [Quinolone-based HDAC inhibitor 4v] gave an IC50 of 39 nM.

`COc1ccc(NC(=O)c2cn(CCCCC(=O)NO)c3ccc(OC)cc3c2=O)cc1` [Quinolone-based HDAC inhibitor 4m]: the IC50 stood at 75 nM. Next, `O=C(CCCCn1cc(C(=O)Nc2ccncc2)c(=O)c2ccccc21)NO` [Quinolone-based HDAC inhibitor 4g]: 90 nM; `COc1ccc2c(c1)c(=O)c(C(=O)Nc1cc(-c3ccccc3)nn1C)cn2CCCCC(=O)NO` [Quinolone-based HDAC inhibitor 4o]: 10 nM; `Cc1csc(NC(=O)c2cn(CCCCC(=O)NO)c3ccccc3c2=O)n1` [Quinolone-based HDAC inhibitor 4i]: 0.1 nM. The figure for `O=C(CCCCn1cc(C(=O)NCc2ccccc2)c(=O)c2ccccc21)NO` [Quinolone-based HDAC inhibitor 4d] is 120 nM; for `COc1ccc(NC(=O)c2cn(CCCCC(=O)NO)c3ccc(F)cc3c2=O)cc1` [Quinolone-based HDAC inhibitor 4r] it is 28 nM. `COc1ccc(NC(=O)c2cn(CCCCC(=O)NO)c3ccccc3c2=O)cc1` [Quinolone-based HDAC inhibitor 4c] displayed an IC50 of 39 nM.

In the case of `COc1ccc2c(c1)c(=O)c(C(=O)Nc1ccc(F)cc1)cn2CCCCC(=O)NO` [Quinolone-based HDAC inhibitor 4l], inhibition was half-maximal at 32 nM (IC50). The figure for `O=C(CCCCn1cc(C(=O)NC2=CC(c3ccccc3)N=N2)c(=O)c2ccccc21)NO` (stereo not drawn) [Quinolone-based HDAC inhibitor 4w] is 95 nM; for `COc1ccc2c(c1)c(=O)c(C(=O)Nc1ccccc1)cn2CCCCC(=O)NO` [Quinolone-based HDAC inhibitor 4k] it is 32 nM; for `O=C(CCCCn1cc(C(=O)Nc2ccc(F)cc2)c(=O)c2ccccc21)NO` [Quinolone-based HDAC inhibitor 4b] it is 270 nM. The figure for `COc1ccc2c(c1)c(=O)c(C(=O)Nc1ccc(OC)c(OC)c1)cn2CCCCC(=O)NO` [Quinolone-based HDAC inhibitor 4n] is 150 nM.

The values are drawn from BindingDB's records for doi:10.3109/14756366.2013.827675 (Orchid Chemicals & Pharmaceuticals Limited, 2014).
